Reference: patent US8691865B2 (AbbVie Inc., priority 2008, dated 2014)
pIC50: −log10 of the molar value. Like-named read-outs stand apart in the source and are kept apart here.

Molecular target: human Cav2.2 (Homo sapiens, UniProt Q00975)
Assay: Assessment of calcium channel activity using FLIPR (Ca2+ influx in IMR32 cells)
Format: cell-based
Settings: for IC50: read-out: IC50 (μM) or percent inhibition (* indicates 3 minute incubation, otherwise 60 minute), 60 minute pre-incubation with compound, IMR32 cells, 80 mM KCl depolarization
Method: (i) In Vitro Methods—Assessment of Calcium Channel Activity Using FLIPR:
The IMR32 cells were maintained in MEM media containing 10% (v/v) FBS, 1% (v/v) antibiotic/antimitotic, 1% (v/v) sodium pyruvate and 1% (v/v) MEM NEAA. Following dissociation in 0.05% (v/v) trypsin/EDTA, cells were seeded into black 1×96-well plates (Corning Cellbind) at a density of 1−1.2×10^5 cells/well and incubated in the maintenance media above for 48 hours at 37° C. […] To determine the IC50 values, the percent inhibition of the compound at each concentration was determined relative to the activity in the absence of inhibitor, and data was fitted using non-linear regression sigmoidal dose response curve analysis with GraphPad Prism®.

Sequence of human Cav2.2 (Q00975 whole entry): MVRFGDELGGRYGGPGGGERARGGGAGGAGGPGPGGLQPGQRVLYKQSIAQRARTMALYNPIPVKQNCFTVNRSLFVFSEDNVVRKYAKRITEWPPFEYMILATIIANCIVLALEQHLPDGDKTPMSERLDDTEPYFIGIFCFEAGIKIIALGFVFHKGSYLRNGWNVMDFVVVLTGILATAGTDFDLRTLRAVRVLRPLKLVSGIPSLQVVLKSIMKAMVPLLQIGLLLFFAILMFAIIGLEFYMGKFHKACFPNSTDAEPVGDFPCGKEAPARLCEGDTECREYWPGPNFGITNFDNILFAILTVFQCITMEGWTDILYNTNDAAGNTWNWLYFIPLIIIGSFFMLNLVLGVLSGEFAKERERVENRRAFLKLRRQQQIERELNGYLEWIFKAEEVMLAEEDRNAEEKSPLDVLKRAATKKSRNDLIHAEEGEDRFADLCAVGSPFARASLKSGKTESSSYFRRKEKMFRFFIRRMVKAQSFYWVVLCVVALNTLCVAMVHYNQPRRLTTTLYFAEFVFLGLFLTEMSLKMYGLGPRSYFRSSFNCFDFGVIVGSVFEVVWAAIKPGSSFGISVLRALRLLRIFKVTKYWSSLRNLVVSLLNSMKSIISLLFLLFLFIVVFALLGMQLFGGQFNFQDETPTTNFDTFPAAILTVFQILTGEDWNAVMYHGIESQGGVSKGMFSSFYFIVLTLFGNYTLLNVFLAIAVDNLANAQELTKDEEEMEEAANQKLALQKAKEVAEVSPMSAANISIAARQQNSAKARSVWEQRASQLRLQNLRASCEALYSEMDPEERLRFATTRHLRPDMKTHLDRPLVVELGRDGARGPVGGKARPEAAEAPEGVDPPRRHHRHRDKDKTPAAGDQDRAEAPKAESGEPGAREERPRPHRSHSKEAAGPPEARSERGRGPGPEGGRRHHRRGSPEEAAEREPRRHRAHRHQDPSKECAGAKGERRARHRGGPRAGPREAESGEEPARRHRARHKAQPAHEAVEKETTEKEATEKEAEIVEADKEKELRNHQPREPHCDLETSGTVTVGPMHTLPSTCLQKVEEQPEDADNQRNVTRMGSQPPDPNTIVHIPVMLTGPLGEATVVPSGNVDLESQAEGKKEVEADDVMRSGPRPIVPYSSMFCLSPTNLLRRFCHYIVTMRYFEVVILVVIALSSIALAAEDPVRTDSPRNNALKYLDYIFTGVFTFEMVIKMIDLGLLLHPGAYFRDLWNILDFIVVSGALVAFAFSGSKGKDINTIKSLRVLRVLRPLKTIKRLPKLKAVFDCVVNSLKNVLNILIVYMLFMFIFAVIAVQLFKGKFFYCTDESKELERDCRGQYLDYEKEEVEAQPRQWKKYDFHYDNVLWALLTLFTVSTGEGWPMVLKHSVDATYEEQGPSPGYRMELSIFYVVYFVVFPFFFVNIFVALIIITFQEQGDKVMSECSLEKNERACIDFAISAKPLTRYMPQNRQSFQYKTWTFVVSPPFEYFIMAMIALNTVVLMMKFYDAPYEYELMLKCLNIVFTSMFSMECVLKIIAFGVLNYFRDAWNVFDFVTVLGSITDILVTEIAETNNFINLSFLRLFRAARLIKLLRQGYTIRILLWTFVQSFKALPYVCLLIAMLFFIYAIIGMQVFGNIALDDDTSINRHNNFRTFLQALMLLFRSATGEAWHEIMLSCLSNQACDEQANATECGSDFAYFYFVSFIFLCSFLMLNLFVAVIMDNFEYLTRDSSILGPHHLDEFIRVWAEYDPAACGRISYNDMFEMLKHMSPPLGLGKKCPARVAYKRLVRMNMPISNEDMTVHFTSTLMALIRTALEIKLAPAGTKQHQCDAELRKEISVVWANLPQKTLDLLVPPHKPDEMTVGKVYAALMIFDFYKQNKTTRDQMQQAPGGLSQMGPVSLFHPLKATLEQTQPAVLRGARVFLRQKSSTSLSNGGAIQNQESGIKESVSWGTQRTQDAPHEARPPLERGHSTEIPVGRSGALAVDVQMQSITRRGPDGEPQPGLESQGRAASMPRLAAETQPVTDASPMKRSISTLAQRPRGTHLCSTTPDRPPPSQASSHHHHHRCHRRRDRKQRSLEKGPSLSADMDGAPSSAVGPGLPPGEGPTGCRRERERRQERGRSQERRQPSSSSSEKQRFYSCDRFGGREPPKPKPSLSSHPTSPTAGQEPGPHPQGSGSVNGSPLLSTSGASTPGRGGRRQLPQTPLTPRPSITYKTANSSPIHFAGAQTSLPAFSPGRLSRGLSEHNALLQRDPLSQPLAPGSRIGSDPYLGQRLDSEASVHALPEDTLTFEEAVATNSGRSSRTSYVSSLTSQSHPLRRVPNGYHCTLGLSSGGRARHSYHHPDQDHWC
Sequence of human Cav2.2 (P54289 25-956 partner limits assumed): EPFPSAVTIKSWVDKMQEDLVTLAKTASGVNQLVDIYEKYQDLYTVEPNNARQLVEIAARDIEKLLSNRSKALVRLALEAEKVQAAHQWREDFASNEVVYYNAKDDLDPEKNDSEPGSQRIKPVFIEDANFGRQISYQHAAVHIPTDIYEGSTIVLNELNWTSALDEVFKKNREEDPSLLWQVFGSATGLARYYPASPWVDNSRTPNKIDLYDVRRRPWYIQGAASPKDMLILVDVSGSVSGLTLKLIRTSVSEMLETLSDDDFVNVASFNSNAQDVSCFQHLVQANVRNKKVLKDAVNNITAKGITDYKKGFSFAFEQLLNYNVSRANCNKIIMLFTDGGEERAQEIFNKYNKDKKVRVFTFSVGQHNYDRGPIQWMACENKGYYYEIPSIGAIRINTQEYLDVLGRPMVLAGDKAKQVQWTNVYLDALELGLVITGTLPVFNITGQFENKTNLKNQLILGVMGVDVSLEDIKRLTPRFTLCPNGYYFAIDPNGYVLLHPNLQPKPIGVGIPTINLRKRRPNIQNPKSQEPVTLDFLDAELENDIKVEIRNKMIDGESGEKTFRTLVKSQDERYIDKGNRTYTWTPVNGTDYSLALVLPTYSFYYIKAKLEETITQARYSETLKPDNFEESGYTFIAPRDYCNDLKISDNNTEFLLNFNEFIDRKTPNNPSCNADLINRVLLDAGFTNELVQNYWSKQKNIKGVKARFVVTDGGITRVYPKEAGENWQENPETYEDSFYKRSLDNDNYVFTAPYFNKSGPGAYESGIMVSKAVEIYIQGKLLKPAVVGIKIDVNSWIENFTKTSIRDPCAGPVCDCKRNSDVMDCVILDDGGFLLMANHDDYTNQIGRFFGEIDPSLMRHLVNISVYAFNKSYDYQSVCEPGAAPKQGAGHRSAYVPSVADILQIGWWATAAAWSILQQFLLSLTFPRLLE
Sequence of human Cav2.2 (P54289 957-1103 partner limits assumed): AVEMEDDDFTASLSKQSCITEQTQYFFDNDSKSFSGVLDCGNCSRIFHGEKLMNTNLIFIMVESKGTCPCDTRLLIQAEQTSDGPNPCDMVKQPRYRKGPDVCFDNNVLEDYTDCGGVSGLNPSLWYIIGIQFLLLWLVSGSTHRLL
Sequence of human Cav2.2 (P54284 whole entry partner): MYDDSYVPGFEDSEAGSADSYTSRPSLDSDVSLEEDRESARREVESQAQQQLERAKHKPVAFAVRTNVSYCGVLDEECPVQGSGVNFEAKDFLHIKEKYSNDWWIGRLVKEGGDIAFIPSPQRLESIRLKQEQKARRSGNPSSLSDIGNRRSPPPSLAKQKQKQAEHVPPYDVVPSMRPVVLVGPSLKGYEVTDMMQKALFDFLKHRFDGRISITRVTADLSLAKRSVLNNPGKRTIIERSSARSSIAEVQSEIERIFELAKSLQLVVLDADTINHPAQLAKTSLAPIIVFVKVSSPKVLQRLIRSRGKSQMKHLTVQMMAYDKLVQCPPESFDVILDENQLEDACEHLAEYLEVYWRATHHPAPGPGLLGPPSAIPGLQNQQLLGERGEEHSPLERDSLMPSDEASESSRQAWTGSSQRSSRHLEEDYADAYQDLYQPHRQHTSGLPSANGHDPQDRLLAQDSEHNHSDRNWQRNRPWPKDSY

IC50 | pIC50 | Compound
1.54 µM |  | O=S(=O)(c1cccc(C(F)(F)F)c1)N(C1CC1)[C@H]1CC[C@H]2CN(CCC(c3ccc(F)cc3)c3ccc(F)cc3)C[C@H]21 (relative stereo) [Example 203, N-{(3aS*,4S*,6aR*)-2-[3,3-bis(4-fluorophenyl)propyl]octahydrocyclopenta[c]pyrrol-4-yl}-N-cyclopropyl-3-(trifluoromethyl)benzenesulfonamide]
 | 5.68 | CCC(CC)C(=O)N[C@H]1CC[C@H]2CN(Cc3cccc(C(F)(F)F)c3)C[C@H]21 (relative stereo) [Example 125, 2-ethyl-N-{(3aS*,4S*,6aR*)-2-[3-(trifluoromethyl)benzyl]octahydrocyclopenta[c]pyrrol-4-yl}butanamide]
 | 5.71 | O=C(N[C@H]1CC[C@H]2CN(Cc3ccccc3)C[C@H]21)C1(c2ccccc2)CCCC1 (relative stereo) [Example 1, N-[(3aS*,4S*,6aR*)-2-benzyloctahydrocyclopenta[c]pyrrol-4-yl]-1-phenylcyclopentanecarboxamide]
 | 5.37 | CN[C@@H](CC(C)C)C(=O)N[C@H]1CC[C@@H]2CN(c3cccc(F)c3)C[C@@H]21 [Example 629, N-[(3aR,4S,6aS)-2-(3-fluorophenyl)octahydrocyclopenta[c]pyrrol-4-yl]-N^2-methyl-L-leucinamide]
 | < 4.52 | CCC[C@H](NC)C(=O)N[C@H]1CC[C@@H]2CN(Cc3ccccc3)C[C@@H]21 [Example 365, N^1-[(3aR,4S,6aS)-2-benzyloctahydrocyclopenta[c]pyrrol-4-yl]-N^2-methyl-L-norvalinamide]
 | < 4.52 | CCCC[C@H](NC)C(=O)N[C@H]1CC[C@@H]2CN(Cc3ccccc3)C[C@@H]21 [Example 362, N^1-[(3aR,4S,6aS)-2-benzyloctahydrocyclopenta[c]pyrrol-4-yl]-N^2-methyl-L-norleucinamide]
 | 5.58 | Cc1cnc(C(=O)N[C@H]2CC[C@@H]3CN(c4cccc(C(F)(F)F)n4)C[C@@H]32)cn1 [Example 579, 5-methyl-N-{(3aR,4S,6aS)-2-[6-(trifluoromethyl)pyridin-2-yl]octahydrocyclopenta[c]pyrrol-4-yl}pyrazine-2-carboxamide]
 | 6.07 | Cc1cccc(CN2C[C@@H]3CC[C@H](NC(=O)C(C4CCCCC4)C4CCCCC4)[C@@H]3C2)c1 [Example 61, 2,2-dicyclohexyl-N-[(3aS,4S,6aR)-2-(3-methylbenzyl)octahydrocyclopenta[c]pyrrol-4-yl]acetamide]
 | 6.02 | CN[C@H](C(=O)N[C@H]1CC[C@@H]2CN(c3cccc(C(F)(F)F)n3)C[C@@H]21)C(C)C [Example 764, N^2-methyl-N-{(3aR,4S,6aS)-2-[6-(trifluoromethyl)pyridin-2-yl]octahydrocyclopenta[c]pyrrol-4-yl}-L-valinamide]
0.86 µM |  | CC(C)C[C@@H](C(=O)N[C@@H]1CC[C@H]2CN(Cc3cccc(C(F)(F)F)c3)C[C@H]21)N(C)C(=O)C(C)(C)C [Example 176, N^2-(2,2-dimethylpropanoyl)-N^2-methyl-N^1-{(3aS,4R,6aR)-2-[3-(trifluoromethyl)benzyl]octahydrocyclopenta[c]pyrrol-4-yl}-L-leucinamide]
 | 6.01 | O=C(N[C@H]1CC[C@@H]2CN(c3cccc(C(F)(F)F)n3)C[C@@H]21)c1ccc2ccccc2n1 [Example 569, N-{(3aR,4S,6aS)-2-[6-(trifluoromethyl)pyridin-2-yl]octahydrocyclopenta[c]pyrrol-4-yl}quinoline-2-carboxamide]
0.83 µM |  | CC(C)C[C@H](NC(=O)OC(C)(C)C)C(=O)N[C@@H]1CC[C@H]2CN(Cc3cccc(C(F)(F)F)c3)C[C@H]21 (relative stereo) [Example 148, N^2-(tert-butyloxycarbonyl)-N^1-{(3aS*,4R*,6aR*)-2-[3-(trifluoromethyl)benzyl]octahydrocyclopenta[c]pyrrol-4-yl}-L-leucinamide]
 | 6.15 | FC(F)(F)c1cccc(N2C[C@H]3CC[C@H](NCc4nc5ccccc5[nH]4)[C@H]3C2)n1 [Example 683, (3aR,4S,6aS)-N-(1H-benzimidazol-2-ylmethyl)-2-[6-(trifluoromethyl)pyridin-2-yl]octahydrocyclopenta[c]pyrrol-4-amine]
9.75 µM |  | CC[C@H](C(=O)N[C@@H]1CC[C@H]2CN(Cc3ccccc3)C[C@H]21)c1ccccc1 [Example 16, (2S)-N-[(3aS,4R,6aR)-2-benzyloctahydrocyclopenta[c]pyrrol-4-yl]-2-phenylbutanamide]

Continued, compound first:

Compound | IC50 | pIC50
CCC[C@H](NCC(C)(C)C)C(=O)N[C@@H]1CC[C@H]2CN(Cc3ccccc3)C[C@H]21 [Example 246, N^1-[(3aS,4R,6aR)-2-benzyloctahydrocyclopenta[c]pyrrol-4-yl]-N^2-neopentyl-L-norvalinamide] | 8.38 µM | 
CCC[C@@H](C(=O)N[C@H]1CC[C@@H]2CN(S(=O)(=O)c3cccs3)C[C@@H]21)N(C)C(=O)OC(C)(C)C [Example 531, tert-butyl methyl((S)-1-oxo-1-((3aR,4S,6aS)-2-(thiophen-2-ylsulfonyl)octahydrocyclopenta[c]pyrrol-4-ylamino)pentan-2-yl)carbamate] |  | 5.46
O=C(N[C@@H]1CC[C@H]2CN(CCC(c3ccc(F)cc3)c3ccc(F)cc3)C[C@H]21)C(C1CCCCC1)C1CCCCC1 [Example 80, N-{(3aS,4R,6aR)-2-[3,3-bis(4-fluorophenyl)propyl]octahydrocyclopenta[c]pyrrol-4-yl}-2,2-dicyclohexylacetamide] | 1.67 µM | 
Cc1cccc2c(CN[C@H]3CC[C@@H]4CN(c5cccc(C(F)(F)F)n5)C[C@@H]43)c[nH]c12 [Example 671, (3aR,4S,6aS)-N-[(7-methyl-1H-indol-3-yl)methyl]-2-[6-(trifluoromethyl)pyridin-2-yl]octahydrocyclopenta[c]pyrrol-4-amine] |  | 5.82
CCC[C@H](NC)C(=O)N[C@H]1CC[C@@H]2CN(S(=O)(=O)c3cc(C(F)(F)F)cc(C(F)(F)F)c3)C[C@@H]21 [Example 538, N^1-((3aR,4S,6aS)-2-{[3,5-bis(trifluoromethyl)phenyl]sulfonyl}octahydrocyclopenta[c]pyrrol-4-yl)-N^2-methyl-L-norvalinamide] | 3.75 µM | 
O=C(N[C@H]1CC[C@@H]2CN(c3ccc(F)cc3)C[C@@H]21)[C@@H]1C[C@@H](F)CN1 [Example 641, (4R)-4-fluoro-N-[(3aR,4S,6aS)-2-(4-fluorophenyl)octahydrocyclopenta[c]pyrrol-4-yl]-L-prolinamide] |  | 4.58
CN[C@@H](CC(C)C)C(=O)N[C@H]1CC[C@@H]2CN(c3ccc(C)cc3)C[C@@H]21 [Example 648, N^2-methyl-N-[(3aR,4S,6aS)-2-(4-methylphenyl)octahydrocyclopenta[c]pyrrol-4-yl]-L-leucinamide] |  | 5.45
CC(C)C[C@@H](C(=O)N[C@@H]1CC[C@H]2CN(Cc3ccccc3)C[C@H]21)N1CCOCC1 [Example 249, (2S)-N-[(3aS,4R,6aR)-2-benzyloctahydrocyclopenta[c]pyrrol-4-yl]-4-methyl-2-morpholin-4-ylpentanamide] |  | < 4.52
CC[C@H](C(=O)N[C@H]1CC[C@@H]2CN([C@@H](C)c3ccccc3)C[C@@H]21)c1ccccc1 [Example 211, (2S)-2-phenyl-N-{(3aR,4S,6aS)-2-[(1S)-1-phenylethyl]octahydrocyclopenta[c]pyrrol-4-yl}butanamide] | 3.82 µM | 
CC(C)(C)NC(=O)N[C@H]1CC[C@@H]2CN(c3cccc(OC(F)(F)F)c3)C[C@@H]21 [Example 779, 1-tert-butyl-3-{(3aR,4S,6aS)-2-[3-(trifluoromethoxy)phenyl]octahydrocyclopenta[c]pyrrol-4-yl}urea] |  | 5.73
O=C(N[C@H]1CC[C@@H]2CN(c3csc(C(F)F)c3)C[C@@H]21)[C@@H]1C[C@@H](F)CN1 [Example 655, (4R)-N-{(3aR,4S,6aS)-2-[5-(difluoromethyl)-3-thienyl]octahydrocyclopenta[c]pyrrol-4-yl}-4-fluoro-L-prolinamide] |  | 4.71
N#Cc1ccc(N2C[C@H]3CC[C@H](NC(=O)[C@@H]4C[C@@H](F)CN4)[C@H]3C2)cc1 [Example 633, (4R)-N-[(3aR,4S,6aS)-2-(4-cyanophenyl)octahydrocyclopenta[c]pyrrol-4-yl]-4-fluoro-L-prolinamide] |  | 4.58
O=C(N[C@H]1CC[C@@H]2CN(c3ccccc3OC(F)(F)F)C[C@@H]21)[C@@H]1C[C@@H](F)CN1 [Example 656, (4R)-4-fluoro-N-{(3aR,4S,6aS)-2-[2-(trifluoromethoxy)phenyl]octahydrocyclopenta[c]pyrrol-4-yl}-L-prolinamide] |  | 5.67
O=C(N[C@H]1CC[C@@H]2CN(c3ccc(C(F)(F)F)cc3)C[C@@H]21)[C@@H]1C[C@@H](F)CN1 [Example 781, (4R)-4-fluoro-N-{(3aR,4S,6aS)-2-[4-(trifluoromethyl)phenyl]octahydrocyclopenta[c]pyrrol-4-yl}-L-prolinamide] |  | 5.08
O=C(N[C@H]1CC[C@H]2CN(Cc3ccccc3)C[C@H]21)C(c1ccccc1)C1CCCC1 (relative stereo) [Example 7, N-[(3aS*,4S*,6aR*)-2-benzyloctahydrocyclopenta[c]pyrrol-4-yl]-2-cyclopentyl-2-phenylacetamide] |  | 6.04
CN[C@@H](CC(C)C)C(=O)N[C@H]1CC[C@@H]2CN(c3cccc(C)c3)C[C@@H]21 [Example 636, N^2-methyl-N-[(3aR,4S,6aS)-2-(3-methylphenyl)octahydrocyclopenta[c]pyrrol-4-yl]-L-leucinamide] |  | 5.43
CCC[C@H](NC)C(=O)N[C@H]1CC[C@@H]2CN(Cc3ccc(C(F)(F)F)cc3)C[C@@H]21 [Example 377, N^2-methyl-N^1-{(3aR,4S,6aS)-2-[4-(trifluoromethyl)benzyl]octahydrocyclopenta[c]pyrrol-4-yl}-L-norvalinamide] | 13.3 µM | 
